Read-outs that look alike come from different tables or passages of the source.
Key:
[1] = target: T1, SARS-CoV-2 nsp3-mac1 (Severe acute respiratory syndrome coronavirus 2, UniProt P0DTD1); experiment: biochemical; design: SARS-CoV-2 nsp3 macrodomain TR-FRET single point, per cent inhibition, n=2
[2] = target: T1, SARS-CoV-2 nsp3-mac1; experiment: biochemical; assay type: biochemical; conditions: SARS-CoV-2 nsp3 macrodomain TR-FRET single point, n=2
[3] = read-out: perc_inhibition_mean, batch_name=ASAP-0000258-001
[4] = read-out: perc_inhibition_mean, batch_name=ASAP-0000260-001
[5] = read-out: perc_inhibition_mean, batch_name=ASAP-0000261-001
[6] = read-out: perc_inhibition_mean, batch_name=ASAP-0000262-001
[7] = read-out: perc_inhibition_mean, batch_name=ASAP-0000263-001
[8] = read-out: perc_inhibition_mean, batch_name=ASAP-0000264-001
[9] = read-out: perc_inhibition_mean, batch_name=ASAP-0000265-001
[10] = read-out: perc_inhibition_mean, batch_name=ASAP-0000267-001
[11] = read-out: perc_inhibition_mean, batch_name=ASAP-0000268-001
[12] = read-out: perc_inhibition_mean, batch_name=ASAP-0000276-001
[13] = read-out: perc_inhibition_mean, batch_name=ASAP-0000277-001
[14] = read-out: perc_inhibition_mean, batch_name=ASAP-0000278-001
[15] = read-out: perc_inhibition_mean, batch_name=ASAP-0000279-001
[16] = read-out: perc_inhibition_mean, batch_name=ASAP-0000280-001
[17] = read-out: perc_inhibition_mean, batch_name=ASAP-0000281-001
[18] = read-out: perc_inhibition_mean, batch_name=ASAP-0000282-001
[19] = read-out: perc_inhibition_mean, batch_name=ASAP-0000283-001
[20] = read-out: perc_inhibition_mean, batch_name=ASAP-0000284-001
[21] = read-out: perc_inhibition_mean, batch_name=ASAP-0000285-001
[22] = read-out: perc_inhibition_mean, batch_name=ASAP-0000286-001
[23] = read-out: perc_inhibition_mean, batch_name=ASAP-0000287-001
[24] = read-out: perc_inhibition_mean, batch_name=ASAP-0000288-001
[25] = read-out: perc_inhibition_mean, batch_name=ASAP-0000289-001
[26] = read-out: perc_inhibition_mean, batch_name=ASAP-0000290-001
[27] = read-out: perc_inhibition_mean, batch_name=ASAP-0000291-001
[28] = read-out: perc_inhibition_mean, batch_name=ASAP-0000292-001
[29] = read-out: perc_inhibition_mean, batch_name=ASAP-0000293-001
[30] = read-out: perc_inhibition_mean, batch_name=ASAP-0000294-001
[31] = read-out: perc_inhibition_mean, batch_name=ASAP-0000295-001

O=c1[nH]cnc2[nH]cc(-c3ccoc3)c12 [ASAP-0000258]
inhibition at 50 µM [1, 3]: -14.5% | inhibition at 100 µM [1, 3]: -13.8% | perc_inhibition_mean ([2]; concentration 50.0 uM): -14.47% | perc_inhibition_mean ([2]; concentration 100.0 uM): -13.824%

Oc1cc(CNc2ncnc3[nH]cnc23)ccn1 [ASAP-0000260]
inhibition at 50 µM [1, 4]: -0.821% | inhibition at 100 µM [1, 4]: -3.73% | perc_inhibition_mean ([2]; concentration 50.0 uM): -0.821% | perc_inhibition_mean ([2]; concentration 100.0 uM): -3.73%

O=C(NCc1nc2cccnc2[nH]1)c1cnc2nc[nH]c(=O)c2c1 [ASAP-0000261]
inhibition at 50 µM [1, 5]: -1.99% | inhibition at 100 µM [1, 5]: 7.03% | perc_inhibition_mean ([2]; concentration 50.0 uM): -1.987% | perc_inhibition_mean ([2]; concentration 100.0 uM): 7.034%

c1cc(CNc2ncnc3nc[nH]c23)n2ncnc2c1 [ASAP-0000262]
inhibition at 50 µM [1, 6]: 1.35% | inhibition at 100 µM [1, 6]: 10% | perc_inhibition_mean ([2]; concentration 50.0 uM): 1.353% | perc_inhibition_mean ([2]; concentration 100.0 uM): 10.036%

Cc1[nH]c2ncnc(NCc3ccco3)c2c1C [ASAP-0000263]
inhibition at 50 µM [1, 7]: 17% | inhibition at 100 µM [1, 7]: 37.5% | perc_inhibition_mean ([2]; concentration 50.0 uM): 16.967% | perc_inhibition_mean ([2]; concentration 100.0 uM): 37.474%

Cc1nc(NC(=O)c2nccc3ccncc23)c2cc[nH]c2n1 [ASAP-0000264]
inhibition at 50 µM [1, 8]: -5.83% | inhibition at 100 µM [1, 8]: 2.61% | perc_inhibition_mean ([2]; concentration 50.0 uM): -5.834% | perc_inhibition_mean ([2]; concentration 100.0 uM): 2.611%

CCC(CC)(C(=O)Nc1nc(C)nc2[nH]ccc12)C(=O)OC(C)(C)C [ASAP-0000265]
inhibition at 50 µM [1, 9]: -9.46% | inhibition at 100 µM [1, 9]: -4.71% | perc_inhibition_mean ([2]; concentration 50.0 uM): -9.456% | perc_inhibition_mean ([2]; concentration 100.0 uM): -4.708%

O=C(Nc1cnc2[nH]ncc2c1)c1cccc(-c2noc(C(F)(F)F)n2)c1 [ASAP-0000267]
inhibition at 50 µM [1, 10]: -0.675% | inhibition at 100 µM [1, 10]: -1.62% | perc_inhibition_mean ([2]; concentration 50.0 uM): -0.675% | perc_inhibition_mean ([2]; concentration 100.0 uM): -1.621%

Cc1nc(NC(=O)c2ccnn2C(C)C)c2cc[nH]c2n1 [ASAP-0000268]
inhibition at 50 µM [1, 11]: -2.64% | inhibition at 100 µM [1, 11]: -4.35% | perc_inhibition_mean ([2]; concentration 50.0 uM): -2.642% | perc_inhibition_mean ([2]; concentration 100.0 uM): -4.346%

COC(=O)[C@]1(F)CCN(C(=O)c2ccc(NC(=O)Nc3ccccc3)cc2)C1 [ASAP-0000276]
inhibition at 49.75 µM [1, 12]: -0.893% | inhibition at 99.5 µM [1, 12]: 0.834% | perc_inhibition_mean ([2]; concentration 49.75 uM): -0.893% | perc_inhibition_mean ([2]; concentration 99.5 uM): 0.834%

CN(Cc1cn(C)nn1)C(=O)c1cnn2ccc(C3CCN(C(=O)c4ccccc4)CC3)cc12 [ASAP-0000277]
inhibition at 49.75 µM [1, 13]: 2.17% | inhibition at 99.5 µM [1, 13]: 1.34% | perc_inhibition_mean ([2]; concentration 49.75 uM): 2.174% | perc_inhibition_mean ([2]; concentration 99.5 uM): 1.337%

Cc1ncc(NCc2csc(-c3ccccn3)n2)cn1 [ASAP-0000278]
inhibition at 49.75 µM [1, 14]: -5.23% | inhibition at 99.5 µM [1, 14]: -4.49% | perc_inhibition_mean ([2]; concentration 49.75 uM): -5.23% | perc_inhibition_mean ([2]; concentration 99.5 uM): -4.487%

FC(F)(F)c1nnc2n1CCN(c1ncnc3[nH]ccc13)C2 [ASAP-0000279]
inhibition at 49.75 µM [1, 15]: -1.97% | inhibition at 99.5 µM [1, 15]: -1% | perc_inhibition_mean ([2]; concentration 49.75 uM): -1.969% | perc_inhibition_mean ([2]; concentration 99.5 uM): -1.005%

O=C(c1ccccc1)N1CCC(c2ccn3ncc(C(=O)N4CCc5nc[nH]c5C4)c3c2)CC1 [ASAP-0000280]
inhibition at 49.75 µM [1, 16]: 11.2% | inhibition at 99.5 µM [1, 16]: 20.3% | perc_inhibition_mean ([2]; concentration 49.75 uM): 11.216% | perc_inhibition_mean ([2]; concentration 99.5 uM): 20.268%

Cc1c(-c2cnc3nc[nH]c(=O)c3c2)ccc2[nH]ncc12 [ASAP-0000281]
inhibition at 49.75 µM [1, 17]: -3.12% | inhibition at 99.5 µM [1, 17]: -4.36% | perc_inhibition_mean ([2]; concentration 49.75 uM): -3.121% | perc_inhibition_mean ([2]; concentration 99.5 uM): -4.364%

O=C(NC1CCC(F)(F)CC1)c1ncnc2[nH]ccc12 [ASAP-0000282]
inhibition at 49.75 µM [1, 18]: -3.47% | inhibition at 99.5 µM [1, 18]: -5.78% | perc_inhibition_mean ([2]; concentration 49.75 uM): -3.47% | perc_inhibition_mean ([2]; concentration 99.5 uM): -5.78%

Cc1n[nH]nc1C(=O)N1CCC(c2ccn3ncc(C(=O)N4CCCCC4)c3c2)CC1 [ASAP-0000283]
inhibition at 49.75 µM [1, 19]: 29.3% | inhibition at 99.5 µM [1, 19]: 45.8% | perc_inhibition_mean ([2]; concentration 49.75 uM): 29.33% | perc_inhibition_mean ([2]; concentration 99.5 uM): 45.786%

Cc1nc(C(=O)N2CCC(c3ccn4ncc(C(=O)N5CCCCC5)c4c3)CC2)c(=O)[nH]c1C [ASAP-0000284]
inhibition at 49.75 µM [1, 20]: 26.4% | inhibition at 99.5 µM [1, 20]: 44.2% | perc_inhibition_mean ([2]; concentration 49.75 uM): 26.409% | perc_inhibition_mean ([2]; concentration 99.5 uM): 44.216%

O=C(c1ncc[nH]1)N1CCC(c2ccn3ncc(C(=O)N4CCCCC4)c3c2)CC1 [ASAP-0000285]
inhibition at 49.75 µM [1, 21]: 18.5% | inhibition at 99.5 µM [1, 21]: 37.2% | perc_inhibition_mean ([2]; concentration 49.75 uM): 18.474% | perc_inhibition_mean ([2]; concentration 99.5 uM): 37.203%

CCn1cnc(Nc2ncnc3c2ncn3Cc2cc(OC)no2)c1 [ASAP-0000286]
inhibition at 49.75 µM [1, 22]: -16.7% | inhibition at 99.5 µM [1, 22]: -12.8% | perc_inhibition_mean ([2]; concentration 49.75 uM): -16.725% | perc_inhibition_mean ([2]; concentration 99.5 uM): -12.789%

O=C(Nc1ccccc1)Nc1ccc(C(=O)N2CCc3ccncc32)cc1 [ASAP-0000287]
inhibition at 49.75 µM [1, 23]: -4.3% | inhibition at 99.5 µM [1, 23]: 0.234% | perc_inhibition_mean ([2]; concentration 49.75 uM): -4.305% | perc_inhibition_mean ([2]; concentration 99.5 uM): 0.234%

O=C(Nc1ccccc1)Nc1ccc(C(=O)N2CCOCC23CCC3)cc1 [ASAP-0000288]
inhibition at 49.75 µM [1, 24]: -5.18% | inhibition at 99.5 µM [1, 24]: -3.18% | perc_inhibition_mean ([2]; concentration 49.75 uM): -5.176% | perc_inhibition_mean ([2]; concentration 99.5 uM): -3.184%

C[C@H](NC(=O)c1ccc(NC(=O)Nc2ccccc2)cc1)[C@@H]1CCCO1 [ASAP-0000289]
inhibition at 49.75 µM [1, 25]: -4.28% | inhibition at 99.5 µM [1, 25]: -4.86% | perc_inhibition_mean ([2]; concentration 49.75 uM): -4.279% | perc_inhibition_mean ([2]; concentration 99.5 uM): -4.858%

O=C1C[C@H](CNC(=O)c2ccc(NC(=O)Nc3ccccc3)cc2)CCN1 [ASAP-0000290]
inhibition at 49.75 µM [1, 26]: 1.22% | inhibition at 99.5 µM [1, 26]: 4.01% | perc_inhibition_mean ([2]; concentration 49.75 uM): 1.223% | perc_inhibition_mean ([2]; concentration 99.5 uM): 4.013%

C[C@H](NC(=O)c1ccc(NC(=O)Nc2ccccc2)cc1)c1ccccn1 [ASAP-0000291]
inhibition at 49.75 µM [1, 27]: 2.45% | inhibition at 99.5 µM [1, 27]: 0.349% | perc_inhibition_mean ([2]; concentration 49.75 uM): 2.448% | perc_inhibition_mean ([2]; concentration 99.5 uM): 0.349%

CN(C(=O)c1ccc(NC(=O)Nc2ccccc2)cc1)[C@@H]1CN2CCC1CC2 [ASAP-0000292]
inhibition at 49.75 µM [1, 28]: -4.01% | inhibition at 99.5 µM [1, 28]: 2.77% | perc_inhibition_mean ([2]; concentration 49.75 uM): -4.01% | perc_inhibition_mean ([2]; concentration 99.5 uM): 2.773%

CN1CCO[C@H](CNC(=O)c2ccc(NC(=O)Nc3ccccc3)cc2)C1 [ASAP-0000293]
inhibition at 49.75 µM [1, 29]: -0.616% | inhibition at 99.5 µM [1, 29]: 3.27% | perc_inhibition_mean ([2]; concentration 49.75 uM): -0.616% | perc_inhibition_mean ([2]; concentration 99.5 uM): 3.272%

Nc1ncnc2c1ncn2Cc1cccc2ncnn12 [ASAP-0000294]
inhibition at 49.75 µM [1, 30]: -0.553% | inhibition at 99.5 µM [1, 30]: -3.16% | perc_inhibition_mean ([2]; concentration 49.75 uM): -0.553% | perc_inhibition_mean ([2]; concentration 99.5 uM): -3.161%

O=C(Nc1ccccc1)Nc1ccc(C(=O)N2CCc3nc[nH]c3C2)cc1 [ASAP-0000295]
inhibition at 49.75 µM [1, 31]: -3.02% | inhibition at 99.5 µM [1, 31]: -2.38% | perc_inhibition_mean ([2]; concentration 49.75 uM): -3.024% | perc_inhibition_mean ([2]; concentration 99.5 uM): -2.379%
